According to paper PMC3855340, “Functional Expression of Human NKCC1 from a Synthetic Cassette-Based cDNA: Introduction of Extracellular Epitope Tags and Removal of Cysteines” (PLoS ONE, 2013):

Molecular target: T1, hNKCC1 (NT17, 3xFlag-YFP-tagged human NKCC1) (Homo sapiens, UniProt P55011)
T1 construct: gene SLC12A2; full-length human NKCC1 from synthetic cDNA with 262 silent mutations; N-terminal 3xFlag and YFP (mVenus) tags kept; pcDNA3.1-neo, stably expressed in HEK-293 cells
T1 sequence (P55011 1-1212): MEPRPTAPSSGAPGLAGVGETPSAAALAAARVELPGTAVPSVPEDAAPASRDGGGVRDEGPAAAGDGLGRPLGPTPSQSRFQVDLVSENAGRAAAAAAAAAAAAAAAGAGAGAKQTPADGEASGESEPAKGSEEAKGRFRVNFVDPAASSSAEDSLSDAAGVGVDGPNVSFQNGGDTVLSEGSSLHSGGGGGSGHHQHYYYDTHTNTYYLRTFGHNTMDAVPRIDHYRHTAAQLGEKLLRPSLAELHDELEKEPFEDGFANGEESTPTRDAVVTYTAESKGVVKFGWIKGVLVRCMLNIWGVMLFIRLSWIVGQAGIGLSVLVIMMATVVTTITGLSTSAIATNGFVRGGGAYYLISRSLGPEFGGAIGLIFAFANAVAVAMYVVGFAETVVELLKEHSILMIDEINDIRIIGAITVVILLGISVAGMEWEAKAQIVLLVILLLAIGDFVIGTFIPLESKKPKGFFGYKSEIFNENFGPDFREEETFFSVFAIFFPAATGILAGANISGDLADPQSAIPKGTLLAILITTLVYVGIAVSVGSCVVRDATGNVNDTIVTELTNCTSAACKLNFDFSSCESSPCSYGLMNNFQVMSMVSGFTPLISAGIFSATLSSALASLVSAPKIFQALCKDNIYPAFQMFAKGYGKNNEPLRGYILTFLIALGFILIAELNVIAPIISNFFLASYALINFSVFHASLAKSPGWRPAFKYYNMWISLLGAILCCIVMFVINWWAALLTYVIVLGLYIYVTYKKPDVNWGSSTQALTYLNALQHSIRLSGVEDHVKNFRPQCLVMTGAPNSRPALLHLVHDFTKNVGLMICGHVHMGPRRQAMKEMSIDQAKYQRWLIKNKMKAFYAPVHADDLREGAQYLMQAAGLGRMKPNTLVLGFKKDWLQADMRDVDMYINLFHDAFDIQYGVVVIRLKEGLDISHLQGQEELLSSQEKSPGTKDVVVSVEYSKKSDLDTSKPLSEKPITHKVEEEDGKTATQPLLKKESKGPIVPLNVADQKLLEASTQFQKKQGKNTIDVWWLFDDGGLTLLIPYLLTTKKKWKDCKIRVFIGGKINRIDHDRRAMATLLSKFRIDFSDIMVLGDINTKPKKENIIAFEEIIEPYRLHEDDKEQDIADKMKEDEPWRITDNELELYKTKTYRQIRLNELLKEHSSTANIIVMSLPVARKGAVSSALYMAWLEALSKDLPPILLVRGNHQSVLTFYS
Assay: influx inhibition in transfected HEK-293 cells, single-site fit
Assay type: cell-based
Settings: read-out: Ki (bumet)

Ki: 460 ± 100 nM
SMILES: CCCCNc1cc(C(=O)O)cc(S(N)(=O)=O)c1Oc1ccccc1 [bumetanide]
